Article PMC3701944 (Journal of medicinal chemistry, 2013)

Experiments:
Format in all cases: biochemical
[1] = molecular target: cloned human μ opioid receptor (MOP) (Homo sapiens, UniProt P35372); experiment: [35S]GTPγS binding assay, inhibition of DAMGO-stimulated binding
[2] = molecular target: cloned human δ opioid receptor (DOP) (Homo sapiens, UniProt P41143); experiment: [35S]GTPγS binding assay, inhibition of DPDPE-stimulated binding
[3] = molecular target: cloned human κ opioid receptor (KOP) (Homo sapiens, UniProt P41145); experiment: [35S]GTPγS binding assay, inhibition of U69,593-stimulated binding; settings: for δ/κ: selectivity for κ relative to δ (fold)
Chain of cloned human κ opioid receptor (KOP) (P41145 whole entry): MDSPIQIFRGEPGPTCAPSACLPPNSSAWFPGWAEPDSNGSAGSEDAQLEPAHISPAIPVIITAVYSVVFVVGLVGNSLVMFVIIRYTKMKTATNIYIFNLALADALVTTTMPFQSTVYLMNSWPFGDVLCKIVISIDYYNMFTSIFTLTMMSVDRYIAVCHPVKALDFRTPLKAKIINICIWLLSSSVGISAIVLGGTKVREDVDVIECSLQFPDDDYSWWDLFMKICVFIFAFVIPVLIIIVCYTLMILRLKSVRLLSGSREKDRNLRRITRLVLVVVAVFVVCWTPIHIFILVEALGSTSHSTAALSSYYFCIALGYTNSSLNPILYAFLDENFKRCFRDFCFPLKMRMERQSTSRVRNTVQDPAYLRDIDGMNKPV

Chain of cloned human μ opioid receptor (MOP) (P35372 whole entry): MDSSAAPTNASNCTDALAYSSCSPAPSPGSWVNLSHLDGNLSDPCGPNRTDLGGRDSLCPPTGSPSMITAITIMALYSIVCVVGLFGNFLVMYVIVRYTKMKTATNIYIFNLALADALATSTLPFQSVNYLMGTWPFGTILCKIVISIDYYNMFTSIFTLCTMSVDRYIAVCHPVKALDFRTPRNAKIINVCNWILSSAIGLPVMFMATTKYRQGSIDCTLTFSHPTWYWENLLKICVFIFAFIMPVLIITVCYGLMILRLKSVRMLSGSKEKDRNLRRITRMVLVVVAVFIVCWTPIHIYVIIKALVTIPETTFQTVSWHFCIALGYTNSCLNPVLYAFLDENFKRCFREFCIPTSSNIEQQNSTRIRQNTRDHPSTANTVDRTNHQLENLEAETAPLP
Chain of cloned human δ opioid receptor (DOP) (P41143 whole entry): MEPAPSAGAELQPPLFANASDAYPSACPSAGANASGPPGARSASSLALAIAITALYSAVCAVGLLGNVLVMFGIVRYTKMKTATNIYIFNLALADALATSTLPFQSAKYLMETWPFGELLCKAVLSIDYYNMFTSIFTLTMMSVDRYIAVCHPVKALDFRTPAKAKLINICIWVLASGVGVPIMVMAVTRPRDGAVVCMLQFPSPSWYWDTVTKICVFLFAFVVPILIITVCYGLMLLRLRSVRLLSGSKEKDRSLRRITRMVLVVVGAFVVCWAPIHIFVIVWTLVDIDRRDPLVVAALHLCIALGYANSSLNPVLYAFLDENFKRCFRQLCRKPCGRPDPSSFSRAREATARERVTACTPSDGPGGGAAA

| Molecule | Kb [1] | Kb [2] | Kb [3] | δ/κ ([3]; ratio of Ke values) | μ/κ ([3]; ratio of Ke values, selectivity for κ relative to μ (fold)) |
| --- | --- | --- | --- | --- | --- |
| COc1cc(C(=O)N[C@H](CN2CCN(c3cccc(O)c3)[C@@H](C)C2)C(C)C)ccc1Oc1cc(C)ccc1O [12k, 4-(2-Hydroxy-5-methylphenoxy)-N-[(1S)-1-{[(3S)-4-(3-hydroxyphenyl)-3-methylpiperazin-1-yl]methyl}-2-methylpropyl]-3-methoxybenzamide] | 10.2 ± 3 nM | 117 ± 80 nM | – | – | – |
| CC(C)[C@@H](CN1CCN(c2cccc(O)c2)[C@@H](C)C1)NC(=O)[C@H]1Cc2ccc(O)cc2CN1 [10a, (3R)-7-Hydroxy-N-[(1S)-1-{[(3S)-4-(3-hydroxyphenyl)-3-methylpiperazin-1-yl]methyl}-2-methylpropyl]-1,2,3,4-tetrahydroisoquinoline-3-carboxamide] | 74.2 ± 7.6 nM | 1310 ± 317 nM | – | – | – |
| CC(C)[C@@H](CN1CCN(c2cccc(O)c2)[C@@H](C)C1)NC(=O)c1ccc(-c2ccccc2)cc1 [compound 22, N-[(1S)-1-{[(3S)-4-(3-Hydroxyphenyl)-3-methylpiperazin-1-yl]methyl}-2-methylpropyl]biphenyl-4-carboxamide] | 8.69 ± 3 nM | 258 ± 88 nM | 1.87 ± 0.47 nM | – | – |
| COc1cc(C(=O)N[C@H](CN2CCN(c3cccc(O)c3)[C@@H](C)C2)C(C)C)ccc1Oc1ccccc1O [12i, 4-(2-Hydroxyphenoxy)-N-[(1S)-1-{[(3S)-4-(3-hydroxyphenyl)-3-methylpiperazin-1-yl]methyl}-2-methylpropyl]-3-methoxybenzamide] | – | 117 ± 60 nM | – | – | – |
| COc1ccc(C(=O)N[C@H](CN2CCN(c3cccc(O)c3)[C@@H](C)C2)C(C)C)cc1OC [compound 24, N-[(1S)-1-{[(3S)-4-(3-Hydroxyphenyl)-3-methylpiperazin-1-yl]methyl}-2-methylpropyl]-3,4-dimethoxybenzamide] | 334 ± 110 nM | > 10000 nM | 81.7 ± 30 nM | >122 | – |
| CC(C)[C@@H](CN1CCN(c2cccc(O)c2)[C@H](C)C1)NC(=O)[C@H]1Cc2ccc(O)cc2CN1 [10b, (3R)-7-Hydroxy-N-[(1S)-1-[[(3R)-4-(3-hydroxyphenyl)-3-methylpiperazin-1-yl]methyl}-2-methylpropyl]-1,2,3,4-tetrahydroisoquinoline-3-carboxamide] | 49.4 ± 2.7 nM | 1550 ± 251 nM | – | – | – |
| CC(C)[C@@H](CN1CCN(c2cccc(O)c2)[C@@H](C)C1)NC(=O)c1ccc(Oc2ccccc2O)c(Cl)c1 [12j, 3-Chloro-4-(2-hydroxyphenoxy)-N-[(1S)-1-{[(3S)-4-(3-hydroxyphenyl)-3-methylpiperazin-1-yl]methyl}-2-methylpropyl]benzamide] | 36 ± 9 nM | 210 ± 82 nM | 5 ± 0.82 nM | – | – |
| Cc1cccc(Oc2ccc(C(=O)N[C@H](CN3CCN(c4cccc(O)c4)[C@@H](C)C3)C(C)C)c(O)c2)c1 [12h, 2-Hydroxy-N-[(1S)-1-{[(3S)-4-(3-hydroxyphenyl)-3-methylpiperazin-1-yl]methyl}-2-methylpropyl]-4-(3-methylphenoxy)benzamide] | 119 ± 28 nM | 880 ± 320 nM | 1.9 ± 0.4 nM | – | – |
| Cc1cccc(Oc2ccc(C(=O)N[C@H](CN3CCN(c4cccc(O)c4)[C@@H](C)C3)C(C)C)c(C)c2)c1 [12f, N-[(1S)-1-{[(3S)-4-(3-Hydroxyphenyl)-3-methylpiperazin-1-yl]methyl}-2-methylpropyl]-2-methyl-4-(3-methylphenoxy)benzamide] | 18 ± 3 nM | 14 ± 3 nM | – | – | – |
| CCCCc1ccc(C(=O)N[C@H](CN2CCN(c3cccc(O)c3)[C@@H](C)C2)C(C)C)cc1 [compound 23, 4-Butyl-N-[(1S)-1-{[(3S)-4-(3-hydroxyphenyl)-3-methylpiperazin-1-yl]methyl}-2-methylpropyl]benzamide] | 21.1 ± 2 nM | 230 ± 3 nM | 2.8 ± 1 nM | – | – |
| N-(1S)-1-{[(3S)-4-(3-Hydroxyphenyl)-3-methylpiperazin-1-yl]methyl}-2-methylpropyl]-5-phenoxypyridine-2-carboxamide [compound 14] | – | – | – | 1119 | 38 |
